# Assay results taken from ChEMBL document CHEMBL1124351, “Syntheses and bioevaluation of substituted dihydropyridines for pregnancy-interceptive activity in hamsters” (1989).
# Tests used:
# [1] = target: T1, Progesterone receptor (Oryctolagus cuniculus) (UniProt P06186); assay: Percent inhibition of [3H]- progesterone binding to rabbit uterine progesterone receptor, at 10e-5 M compound concentration; details: at 10 µM
# T1 sequence (whole entry): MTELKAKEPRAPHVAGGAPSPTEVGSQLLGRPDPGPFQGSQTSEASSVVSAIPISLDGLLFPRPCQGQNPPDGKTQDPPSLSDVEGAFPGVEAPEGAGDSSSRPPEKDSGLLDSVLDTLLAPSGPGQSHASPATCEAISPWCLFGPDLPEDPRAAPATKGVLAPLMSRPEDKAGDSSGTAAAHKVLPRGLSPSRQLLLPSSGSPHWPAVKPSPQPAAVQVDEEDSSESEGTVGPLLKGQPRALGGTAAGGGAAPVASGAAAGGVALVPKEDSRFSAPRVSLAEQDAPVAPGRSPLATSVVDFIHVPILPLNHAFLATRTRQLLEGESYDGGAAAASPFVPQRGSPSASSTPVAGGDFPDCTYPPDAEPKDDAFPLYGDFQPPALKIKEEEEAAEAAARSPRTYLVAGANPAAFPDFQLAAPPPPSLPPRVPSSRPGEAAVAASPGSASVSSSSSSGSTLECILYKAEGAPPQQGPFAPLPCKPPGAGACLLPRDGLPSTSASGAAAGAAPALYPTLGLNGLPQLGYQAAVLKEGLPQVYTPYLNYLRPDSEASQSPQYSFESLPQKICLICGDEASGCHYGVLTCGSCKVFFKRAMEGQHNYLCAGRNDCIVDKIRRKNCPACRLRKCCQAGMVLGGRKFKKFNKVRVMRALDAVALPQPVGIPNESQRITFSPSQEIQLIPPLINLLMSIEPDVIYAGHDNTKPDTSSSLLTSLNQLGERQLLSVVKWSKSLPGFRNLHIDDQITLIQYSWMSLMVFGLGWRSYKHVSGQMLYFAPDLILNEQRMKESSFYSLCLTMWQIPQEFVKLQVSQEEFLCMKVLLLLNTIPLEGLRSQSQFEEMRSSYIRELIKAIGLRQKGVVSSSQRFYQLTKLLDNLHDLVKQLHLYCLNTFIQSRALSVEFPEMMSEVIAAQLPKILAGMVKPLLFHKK
# [2] = target: T1, Progesterone receptor (Oryctolagus cuniculus); assay: Percent inhibition of [3H]- progesterone binding to rabbit uterine progesterone receptor, at 10e-6 M compound concentration; details: at 1 µM
# [3] = target: T1, Progesterone receptor (Oryctolagus cuniculus); assay: Percent inhibition of [3H]- progesterone binding to rabbit uterine progesterone receptor, at 10e-8 M compound concentration; details: at 0.01 µM
# [4] = target: T1, Progesterone receptor (Oryctolagus cuniculus); assay: Percent inhibition of [3H]- progesterone binding to rabbit uterine progesterone receptor, at 10e-9 M compound concentration; details: at 0.001 µM
# [5] = target: T1, Progesterone receptor (Oryctolagus cuniculus); assay: Percent inhibition of [3H]- progesterone binding to rabbit uterine progesterone receptor, at 10e-7 M compound concentration; details: at 0.1 µM
# [6] = tested on: Cricetinae gen. sp.; assay: Activity against pregnancy-interceptive activity in Syrian golden hamsters, when administered, at a dose of 8.40 mmol/kg; assay type: functional, Cricetulus griseus
# [7] = tested on: Progesterone receptor (Mesocricetus auratus); assay: Percent inhibition of [3H]- progesterone binding to Syrian golden hamster uterine cytosol progesterone receptor, at 10e-5 M compound concentration; details: at 10 µM
# [8] = tested on: Progesterone receptor (Mesocricetus auratus); assay: Percent inhibition of [3H]- progesterone binding to Syrian golden hamster uterine cytosol progesterone receptor, at 10e-7 M compound concentration; details: at 0.1 µM
# [9] = tested on: Progesterone receptor (Mesocricetus auratus); assay: Percent inhibition of [3H]- progesterone binding to Syrian golden hamster uterine cytosol progesterone receptor, at 10e-8 M compound concentration; details: at 0.01 µM
# [10] = tested on: Progesterone receptor (Mesocricetus auratus); assay: Percent inhibition of [3H]- progesterone binding to Syrian golden hamster uterine cytosol progesterone receptor, at 10e-9 M compound concentration; details: at 0.001 µM
# [11] = tested on: Progesterone receptor (Mesocricetus auratus); assay: Percent inhibition of [3H]- progesterone binding to Syrian golden hamster uterine cytosol progesterone receptor, at 10e-6 M compound concentration; details: at 1 µM
# [12] = tested on: Cricetinae gen. sp.; assay: Activity against pregnancy-interceptive activity in Syrian golden hamsters, when administered, at a dose of 9.31 mmol/kg; assay type: functional
# [13] = tested on: Cricetinae gen. sp.; assay: Activity against pregnancy-interceptive activity in Syrian golden hamsters, when administered, at a dose of 9.54 mmol/kg; assay type: functional
# [14] = tested on: Cricetinae gen. sp.; assay: Activity against pregnancy-interceptive activity in Syrian golden hamsters, when administered, at a dose of 7.97 mmol/kg; assay type: functional, Cricetulus griseus
# [15] = tested on: Cricetinae gen. sp.; assay: Activity against pregnancy-interceptive activity in Syrian golden hamsters, when administered, at a dose of 26.88 mmol/kg; assay type: functional
# [16] = tested on: Cricetinae gen. sp.; assay: Activity against pregnancy-interceptive activity in Syrian golden hamsters, when administered, at a dose of 13.85 mmol/kg; assay type: functional
SMILES,inhibition [1] [%],inhibition [2] [%],inhibition [3] [%],inhibition [4] [%],inhibition [5] [%],Activity [6],inhibition [7] [%],inhibition [8] [%],inhibition [9] [%],inhibition [10] [%],inhibition [11] [%],Activity [12],Activity [13],Activity [14],Activity [15] [mean],Activity [16]
COC(=O)C1=C(C)N=C(C)/C(=C(/O)OC)C1c1ccc2nc(-c3ccc4c(c3)OCO4)n(Cc3ccc4c(c3)OCO4)c2c1 (stereo unspecified),18,12,0,0,5,4.4,16,8,5,0,15,–,–,–,–,–
COC(=O)C1=C(C)N=C(C)/C(=C(\O)OC)C1c1cc2cc(-c3c(C)oc(C)c3C(=O)OC)ccc2nc1Cl (stereo unspecified),8,10,0,0,5,–,17,9,10,5,20,1.8,–,–,–,–
COC(=O)C1=C(C)N=C(C)/C(=C(/O)OC)C1c1ccc(C2C(C(=O)OC)=C(C)N=C(C)/C2=C(/O)OC)cc1 (stereo unspecified),36,26,10,4,16,–,34,15,13,9,31,–,6.2,–,–,–
COC(=O)C1=C(C)N=C(C)/C(=C(/O)OC)C1c1ccc2nc(-c3ccc(OC)c(OC)c3)n(Cc3ccc(OC)c(OC)c3)c2c1 (stereo unspecified),8,10,0,0,8,–,16,5,5,2,10,–,–,4,–,–
COC(=O)Nc1nc2cc(C3C(C(=O)OC)=C(C)N=C(C)/C3=C(/O)OC)ccc2n1Cc1ccccc1 (stereo unspecified),–,–,–,–,–,–,–,–,–,–,–,–,–,–,3.58,–
COC(=O)C1=C(C)N=C(C)/C(=C(\O)OC)C1c1ccc(N)c([N+](=O)[O-])c1 (stereo unspecified),5,1,0,0,0,–,10,5,0,0,5,–,–,–,–,7
